Measured values taken from the supplement of paper PMC9265050, “Inhibition of RNA Binding in SND1 Increases the Levels of miR-1-3p and Sensitizes Cancer Cells to Navitoclax” (Cancers, 2022).

Tested on: SW480
Assay: drug sensitivity score (DSS, integrated dose-response area); higher = more sensitive (stronger viability reduction); extreme values may be limits of the assay
In short: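 SW480 cells stably carrying doxycycline-inducible control or SND1-targeting shRNA were induced with 0.1 µg/mL doxycycline for 7 days. They were then plated at 1000 cells per well in 384-well plates holding 525 commercially available small-molecule inhibitors at five concentrations. Viability was read with CellTiter-Glo after 72 h. The drug sensitivity score integrates the area under a fitted non-linear dose–response model.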

[1] = shRNA: SND1 shRNA1 (SND1 silenced)
[2] = shRNA: control shRNA (non-targeting)
[3] = shRNA: SND1 shRNA2 (SND1 silenced)

CC[C@H](C)C(=O)O[C@H]1C[C@@H](C)C=C2C=C[C@H](C)[C@H](CC[C@@H]3C[C@@H](O)CC(=O)O3)[C@H]21 [Lovastatin]
drug sensitivity score [1]: 0 DSS
drug sensitivity score [2]: 0 DSS

CNC(=O)c1cccc2cc(Oc3ccnc4cc(OCC5(N)CC5)c(OC)cc34)ccc12 [Lucitanib]
drug sensitivity score [1]: 2.3 DSS
drug sensitivity score [3]: 0.6 DSS
drug sensitivity score [2]: 3 DSS

CCNC(=O)c1noc(-c2cc(C(C)C)c(O)cc2O)c1-c1ccc(CN2CCOCC2)cc1 [Luminespib]
drug sensitivity score [1]: 15.3 DSS
drug sensitivity score [3]: 15.4 DSS
drug sensitivity score [2]: 15.7 DSS

C=CCn1c(=O)c2cnc(Nc3ccc(N4CCN(C)CC4)cc3)nc2n1-c1cccc(C(C)(C)O)n1 [MK1775]
drug sensitivity score [1]: 13.5 DSS
drug sensitivity score [3]: 11.5 DSS
drug sensitivity score [2]: 11.9 DSS

O=C(O)CC[C@H]1CC[C@@](c2cc(F)ccc2F)(S(=O)(=O)c2ccc(Cl)cc2)CC1 [MK-0752]
drug sensitivity score [1]: 0.7 DSS
drug sensitivity score [3]: 0 DSS
drug sensitivity score [2]: 0 DSS

NC1(c2ccc(-c3nc4ccn5c(=O)[nH]nc5c4cc3-c3ccccc3)cc2)CCC1 [MK-2206]
drug sensitivity score [1]: 3.5 DSS
drug sensitivity score [3]: 4.4 DSS
drug sensitivity score [2]: 3.6 DSS

CN(C[C@@H]1COCCO1)S(=O)(=O)Nc1ccc2ccc3ncc(-c4cnn(C)c4)cc3c(=O)c2c1 [MK-2461]
drug sensitivity score [1]: 0.6 DSS
drug sensitivity score [3]: 0 DSS
drug sensitivity score [2]: 0.3 DSS

O=C(c1cccc(Cl)c1F)N1CCN(Cc2cccc(Nc3nccs3)n2)CC1 [MK-8745]
drug sensitivity score [1]: 1.7 DSS
drug sensitivity score [2]: 1.9 DSS

Cn1cc(-c2cnn3c(N)c(Br)c([C@@H]4CCCNC4)nc23)cn1 [MK-8776]
drug sensitivity score [1]: 0.9 DSS
drug sensitivity score [3]: 0.1 DSS
drug sensitivity score [2]: 2.2 DSS

Cc1cnc(-c2ccccc2C(C)C)nc1NCc1ccc(-n2ccnn2)cc1 [ML323]
drug sensitivity score [1]: 0 DSS
drug sensitivity score [3]: 1.4 DSS
drug sensitivity score [2]: 4.4 DSS

CC(C)n1nc(-c2ccc3oc(N)nc3c2)c2c(N)ncnc21 [MLN-0128]
drug sensitivity score [1]: 14 DSS
drug sensitivity score [3]: 12.3 DSS
drug sensitivity score [2]: 9.8 DSS

O=C(O)c1ccc(Nc2ncc3c(n2)-c2ccc(Cl)cc2C(c2c(F)cccc2F)=NC3)cc1 [MLN-8054]
drug sensitivity score [1]: 6.3 DSS
drug sensitivity score [2]: 6.5 DSS

O=C(Nc1cccc(NC(=O)c2cccc(O)c2O)c1)c1cccc(O)c1O [MST-312]
drug sensitivity score [1]: 7.6 DSS
drug sensitivity score [3]: 5.2 DSS
drug sensitivity score [2]: 8.2 DSS

CNC(=O)[C@@H](NC(=O)[C@H](CC(C)C)[C@H](O)C(=O)NO)C(C)(C)C [Marimastat]
drug sensitivity score [1]: 0 DSS
drug sensitivity score [3]: 0 DSS
drug sensitivity score [2]: 0 DSS

Cc1ccc(NC(=O)c2ccc(CN3CCN(C)CC3)cc2)cc1Nc1nc(-c2cccnc2)cs1 [Masitinib]
drug sensitivity score [1]: 3.1 DSS
drug sensitivity score [3]: 3.4 DSS
drug sensitivity score [2]: 4.6 DSS

CC(=O)O[C@]1(C(C)=O)CC[C@H]2[C@@H]3C=C(C)C4=CC(=O)CC[C@]4(C)[C@H]3CC[C@@]21C [Megestrol acetate]
drug sensitivity score [1]: 0 DSS
drug sensitivity score [3]: 0 DSS
drug sensitivity score [2]: 0 DSS

N[C@@H](Cc1ccc(N(CCCl)CCCl)cc1)C(=O)O [Melphalan]
drug sensitivity score [1]: 0 DSS
drug sensitivity score [2]: 0 DSS

CCN(CC)CCCC(C)Nc1c2ccc(Cl)cc2nc2ccc(OC)cc12 (centres undefined) [Mepacrine]
drug sensitivity score [1]: 21.5 DSS
drug sensitivity score [2]: 21.5 DSS

S=c1[nH]cnc2nc[nH]c12 [Mercaptopurine]
drug sensitivity score [1]: 9.7 DSS
drug sensitivity score [3]: 5.3 DSS
drug sensitivity score [2]: 6.3 DSS

Cc1ccc(C(=O)Nc2ccc(Oc3cc4cnn(C)c4cc3-c3cn[nH]c3)c(F)c2)c(=O)n1-c1ccc(F)cc1 [Merestinib]
drug sensitivity score [1]: 4.5 DSS
drug sensitivity score [3]: 5.4 DSS
drug sensitivity score [2]: 4.3 DSS

CN(C)C(=N)NC(=N)N [Metformin]
drug sensitivity score [1]: 0 DSS
drug sensitivity score [2]: 1 DSS

CN(Cc1cnc2nc(N)nc(N)c2n1)c1ccc(C(=O)N[C@@H](CCC(=O)O)C(=O)O)cc1 [Methotrexate]
drug sensitivity score [1]: 11.7 DSS
drug sensitivity score [2]: 7.4 DSS

C[C@H]1C[C@@H]2[C@H]([C@@H](O)C[C@@]3(C)[C@H]2CC[C@]3(O)C(=O)CO)[C@@]2(C)C=CC(=O)C=C12 [Methylprednisolone]
drug sensitivity score [1]: 0 DSS
drug sensitivity score [3]: 1.4 DSS
drug sensitivity score [2]: 0 DSS

CO[C@@H]1[C@H](N(C)C(=O)c2ccccc2)C[C@H]2O[C@]1(C)n1c3ccccc3c3c4c(c5c6ccccc6n2c5c31)C(=O)NC4 [Midostaurin]
drug sensitivity score [1]: 14.3 DSS
drug sensitivity score [3]: 14.7 DSS
drug sensitivity score [2]: 14.5 DSS

CNC(=O)c1nn(C)c2c1C(C)(C)Cc1cnc(Nc3ccc(N4CCN(C)CC4)cc3)nc1-2 [Milciclib]
drug sensitivity score [1]: 11.4 DSS
drug sensitivity score [3]: 10.9 DSS
drug sensitivity score [2]: 9.2 DSS

CO[C@@]12[C@H](COC(N)=O)C3=C(C(=O)C(C)=C(N)C3=O)N1C[C@@H]1N[C@@H]12 [Mitomycin C]
drug sensitivity score [1]: 2.7 DSS
drug sensitivity score [3]: 2.1 DSS
drug sensitivity score [2]: 1 DSS

Clc1ccc(C(c2ccccc2Cl)C(Cl)Cl)cc1 (centres undefined) [Mitotane]
drug sensitivity score [1]: 0 DSS
drug sensitivity score [3]: 0 DSS
drug sensitivity score [2]: 0 DSS

O=C1c2c(O)ccc(O)c2C(=O)c2c(NCCNCCO)ccc(NCCNCCO)c21 [Mitoxantrone]
drug sensitivity score [1]: 1.9 DSS
drug sensitivity score [3]: 0.3 DSS
drug sensitivity score [2]: 0.8 DSS

Nc1ccccc1NC(=O)c1ccc(CNc2nccc(-c3cccnc3)n2)cc1 [Mocetinostat]
drug sensitivity score [1]: 10.2 DSS
drug sensitivity score [3]: 6.1 DSS
drug sensitivity score [2]: 7.8 DSS

N#CCNC(=O)c1ccc(-c2ccnc(Nc3ccc(N4CCOCC4)cc3)n2)cc1 [Momelotinib]
drug sensitivity score [1]: 3.8 DSS
drug sensitivity score [3]: 2.1 DSS
drug sensitivity score [2]: 1.9 DSS

CC1(C)CNc2cc(NC(=O)c3cccnc3NCc3ccncc3)ccc21 [Motesanib]
drug sensitivity score [1]: 0 DSS
drug sensitivity score [3]: 0.4 DSS
drug sensitivity score [2]: 0 DSS

FC(F)(F)c1ccc(/C=C/c2nc(COc3ccc(CCCCn4ccnn4)cc3)co2)cc1 [Mubritinib]
drug sensitivity score [1]: 3.8 DSS
drug sensitivity score [3]: 9.3 DSS
drug sensitivity score [2]: 5.5 DSS

Cc1cc(OCc2nnc(SC3CCCC3)n2-c2cccnc2)ccc1-c1ccc(S(C)(=O)=O)cc1 [NMS-873]
drug sensitivity score [1]: 9.5 DSS
drug sensitivity score [3]: 10.5 DSS
drug sensitivity score [2]: 9 DSS

CCN1CCN(Cc2ccc(-c3cc4c(N[C@H](C)c5ccccc5)ncnc4[nH]3)cc2)CC1 [NVP-AEE788]
drug sensitivity score [1]: 1.5 DSS
drug sensitivity score [3]: 1.3 DSS
drug sensitivity score [2]: 2.8 DSS

CCN1CCN(c2ccc(Nc3cc(N(C)C(=O)Nc4c(Cl)c(OC)cc(OC)c4Cl)ncn3)cc2)CC1 [NVP-BGJ398]
drug sensitivity score [1]: 0 DSS
drug sensitivity score [3]: 0 DSS
drug sensitivity score [2]: 0 DSS

COc1ccc(-c2ccc3ncc4c(c3c2)n(-c2ccc(N3CCNCC3)c(C(F)(F)F)c2)c(=O)n4C)cn1 [NVP-BGT226]
drug sensitivity score [1]: 18.6 DSS
drug sensitivity score [3]: 20.6 DSS
drug sensitivity score [2]: 19 DSS

CNC(=O)c1ccc(-c2cnc3ncc(Cc4ccc5ncccc5c4)n3n2)cc1F [NVP-INC280]
drug sensitivity score [1]: 0 DSS
drug sensitivity score [3]: 5.7 DSS
drug sensitivity score [2]: 5.8 DSS
